Reference: patent US8691943B2, “Antimicrobial activity of chicken NK-2 peptide against apicomplexan protozoa” (priority 2011, dated 2014)
Where no end group is shown, it is not given here.

Tests used:
[1] = tested on: E. acervulina sporozoites; test: Eimeria acervulina sporozoite viability by trypan blue exclusion; type: cell-based; conditions: for effect on E. acervulina sporozoites viability: peptide 1 μM to 10 μM, 1 h, 3 h, 6 h at 41° C.
Procedure: FIG. 1 depicts the cytotoxic activity of chicken NK-lysin peptides for Eimeria acervulina sporozoites. E. acervulina sporozoites (2×10^6/ml) were incubated with control medium (HBSS) and 4 kinds of NK-lysin peptides (50 ug/ml, 100 ug/ml) for 3 h at 41° C. Sporozoite viability was assessed by trypan blue exclusion. Experiments were done in triplicate and considered significant at P<0.01.
For investigating the kinetics of NK-lysin peptides, E. acervulina sporozoites (1.5×10^6/ml) were incubated with NK-lysin-transfected COS7 cell supernatant (1:1 dilution) and various concentrations of melittin, cNK-2 or cNK-4 for 1 h, 3 h and 6 h at 41° C.; sporozoite viability was assessed by trypan blue exclusion. Experiments were performed in triplicate.
E. acervulina sporozoites were obtained by excystation of sporulated oocysts (Dulski and Turner. 1988. Avian Dis. 32:235-239). After breaking the oocyst membrane with 0.5 mm glass beads by Mini-beadbeater (BioSpec Products Inc., Bartlesville, Okla.), sporocysts were purified by isopycnic centrifugation on a Percoll gradient, washed in cold PBS, then treated with excystation solution (0.25% trypsin, 0.014 M taurocholic acid) for 30 min at 41° C. to release sporozoites. Excystation fluid was filtered and the sporozoites were washed 3 times with cold HBSS at 3,000 rpm for 10 min at 4° C. and resuspended to 1.0×10^6/ml in HBSS or 10% RPMI-1640 medium (Sigma) (Hong et al. 2008, supra). The sporozoites were incubated for 1 h, 3 h or 6 h at 41° C. with NK-lysin-transfected COS7 cell supernatants, melittin or synthetic chicken NK-lysin peptides, stained with trypan blue, and viable sporozoites were counted microscopically.
To compare the effect of four kinds of chicken NK-lysin peptides on Eimeria acervulina sporozoites, Eimeria sporozoites were incubated in 50 μg/ml and 100 ug/ml of each peptide for 3 h at 41° C., respectively. The HBSS was used as a control. […] In contrast, other peptides or control didn't kill Eimeria sporozoites (FIG. 1).
We next investigated the cytolytic activity of cNK-2 lytic peptide at increasing concentrations from 1 μM to 10 μM (FIG. 2). Melittin was used as a positive control to gain peptide-induced lysis in the absence of a phospholipid preference (Dempsey, C. E. 1990. Biochim. Biophys. Acta 1031:143-161).

N. caninum tachyzoites = test: Neospora caninum tachyzoite viability by trypan blue exclusion; type: cell-based; conditions: 41° C.; for tachyzoites killed: 1 h incubation; for tachyzoites killing: 3 h incubation
Procedure: FIG. 3 depicts the dose- and time-dependant effects of chicken cNK-2 peptide on Neospora caninum tachyzoites. For investigating kinetics of NK-lysin peptides, N. caninum tachyzoites (1.0×10^7/ml) were incubated with medium (control) and two different concentrations (5 uM and 10 uM) of cNK-2 for 1 h and 3 h at 41° C.; tachyzoite viability was assessed by trypan blue exclusion. Experiments were performed in triplicate. RPMI medium alone served as the negative control. Data were expressed as means±SEM. Differences were considered statistically significant at P<0.05 by the Duncan's multiple range test.
N. caninum tachyzoites were prepared as described with modifications (Tuo et al. 2005. Infect. Immun. 73:5093-5100). N. caninum (NC-1 isolate) tachyzoites were cultured on bovine monocytes (Lindsay and Dubey. 1989. J. Parasitol. 75:163-165) in RPMI 1640 medium supplemented with 2% fetal calf serum and 50 μg/ml gentamicin at 37° C. in a 95% air and 5% CO2 atmosphere. N. caninum tachyzoite-infected host cells were collected, passed through 20- and 27-gauge needles, and pelleted by centrifugation at 1,000×g for 20 min at 4° C. Tachyzoites were then purified by centrifugation over a 40% Percoll gradient at 2,000×g for 30 min at 4° C. The tachyzoite pellet was then resuspended in PBS (pH 7.4) and washed three times. Finally tachyzoites were resuspended to 5.0×10^6/ml in 10% RPMI-1640 medium (Sigma). The tachyzoites were incubated for 1 h or 3 h at 41° C. with synthetic chicken NK-lysin peptides (5 μM and 10 μM), stained with trypan blue, and viable tachyzoites were counted microscopically.

C. parvum sporozoites = test: Cryptosporidum parvum sporozoite viability by two-component fluorescent dye exclusion assay; type: cell-based; conditions: 0.017, 0.17, 17 and 170 μg/ml; 2 hrs incubation; P<0.01 at 170 μg/ml, P<0.05 at the others
Procedure: FIG. 4 depicts the effect of NK lysine on Cryptosporidum parvum sporozoites. Freshly prepared C. parvum sporozoites were incubated with different doses of cNK-2 for […] and Cryptosporidia sporozoite viability was measured by a two-component fluorescent dye exclusion assay (LIVE/DEAD Reduced Biohazard Viability/Cytotoxicity Kits, Molecular Probes L-7013). The result is presented as the means plus standard deviations. Statistical analysis was performed by the paired t-test with the Statcel2 software. The level of significance was set at a P value of <0.05.
C. parvum sporozoites were prepared as described with modifications (Riggs and Perryman. 1987. Infect. Immun. 55:2081-2087). The C. parvum sporozoites were incubated with various concentrations of cNK-2 peptides or BSA and viability was assessed after 2 hrs of incubation. Viability of the sporozoites was measured by a two-component fluorescent dye exclusion assay (LIVE/DEAD Reduced Biohazard Viability/Cytotoxicity Kits, Molecular Probes L-7013). Results are presented as the means plus standard deviations. […] Statistical analysis was performed with the Statcel2 software.

E. maxima = test: Membrane permeabilization in E. maxima (data not shown); type: cell-based, Eimeria maxima
E. acervulina oocysts = test: In ovo plus intraperitoneal administration, protection against live oral E. acervulina challenge; type: in vivo, chickens
Procedure: FIGS. 6A and 6B depict the effect of cNK-2 treatment on body weight gains of birds infected with E. acervulina. At 1 day post-hatch, the chickens were infected with 500 sporulated oocysts of E. acervulina. Body weights were assessed at 5 days (FIG. 6A) and 10 days (FIG. 6B) post-infection. […] Each bar represents the mean±SEM values.
FIG. 7 depicts the effect of cNK-2 treatment on fecal oocyst shedding after oral challenge infection with live E. acervulina. At 1 day post-hatch, chickens were infected with 500 sporulated oocysts of E. acervulina and fecal oocysts were measured starting from day 5 to day 10 post-infection. Each bar represents the mean±SEM values.
For protection studies, broiler eggs at the 18-day-old embryo stage were allocated into 4 groups of 12 eggs each. An in ovo injector was used to inoculate eggs. The two control groups (Groups 1 and 2) received no NK lysin peptide and were mock inoculated with Hanks Balanced Salt Solution (HBSS) only. Two groups were inoculated with an in ova injection of cNK-2 peptide (ARS005-1; RD-27) at doses of 1 μg/embryo (Group 3) or 5 μg/embryo (Group 4). Three days later, birds were hatched and moved to brooder petersime units. Birds of Groups 3 and 4 were given a second injection with cNK-2 peptide at doses of 1 μg/bird and 5 μg/bird, respectively, using an intraperitoneal route as shown in Table 2. Birds that had been injected in ova with HBSS alone were not given an additional intraperitoneal injection (Table 2).
At one day post hatch, the birds from Groups 2, 3 and 4 were challenged orally with 500 sporulated, live Eimeria acervulina oocysts. Body weights were measured at 1 day post hatch, i.e., on the day of challenge (coccidia infection), at 5 days (FIG. 6A) and at 10 days (FIG. 6B) post-infection.
The effect of cNK-2 peptide on fecal oocyst shedding was also determined. […] Oocysts were collected between 5 and 10 days post infection and the number were counted using an established method (FIG. 7).

E. tenella = test: Membrane permeabilization in E. tenella (data not shown); type: cell-based, Eimeria tenella
E. coli strain BMH71-18 = test: Bactericidal activity, broth microdilution assay (OD600); type: cell-based; conditions: peptides 0-40 μg/ml, 18 h
Procedure: Ampicillin (0-20 μg/ml), chicken NK-lysin peptides (0-40 μg/ml), or LB broth alone were added to cultures of the bacteria and incubated for 18 h at […]. Bacterial growth was determined by measuring OD600. X axis: Ampicillin concentrations.
To evaluate the bactericidal activity of NK-lysin peptides, the minimum inhibitory concentration (MIC) values of the purified recombinant protein against E. coil strain BMH71-18 were determined using a standardized broth microdilution assay. Ampicillin MIC values against the bacteria were determined in parallel as positive controls. The assays were performed in accordance with Clinical and Laboratory Standards Institute (CLSI; Formerly National Committee for Clinical Laboratory Standards [NCCLS]) guidelines (NCCLS. 1999. In: Methods for Determining Bacterial Activity of Antimicrobial Agents, NCCLC, Wayne, Pa.; NCCLS. 2002. In: Performance Standards for Antimicrobial Disk and Dilution Susceptibility Tests for Bacteria isolated from Animals; Approved Standard, 2nd ed. NCCLS, Wayne, Pa.). […] The wells were incubated for 18 h at 37° C. with ambient air circulation and without shaking, and the optical density (OD) of each well was measured on a Synergy HT™ multi-modal plate reader (Bio-Tec Instruments, Winooski, Vt.) at 600 nm. Background values, derived from non-inoculated wells containing broth alone, were subtracted from all readings.

Question: Which “cytolytic effect on E. acervulina sporozoites” value ([1]; melittin positive control at 2.5 μM and 5 μM) does the source give for `CC[C@H](C)[C@H](NC(=O)CN)C(=O)NCC(=O)N[C@@H](C)C(=O)N[C@H](C(=O)N[C@@H](CC(C)C)C(=O)N[C@@H](CCCCN)C(=O)N[C@H](C(=O)N[C@@H](CC(C)C)C(=O)N[C@H](C(=O)N[C@H](C(=O)NCC(=O)N[C@@H](CC(C)C)C(=O)N1CCC[C@H]1C(=O)N[C@@H](C)C(=O)N[C@@H](CC(C)C)C(=O)N[C@H](C(=O)N[C@@H](CO)C(=O)N[C@@H](Cc1c[nH]c2ccccc12)C(=O)N[C@H](C(=O)N[C@@H](CCCCN)C(=O)N[C@@H](CCCNC(=N)N)C(=O)N[C@@H](CCCCN)C(=O)N[C@@H](CCCNC(=N)N)C(=O)N[C@@H](CCC(N)=O)C(=O)N[C@@H](CCC(N)=O)C(N)=O)[C@@H](C)CC)[C@@H](C)CC)[C@@H](C)O)[C@@H](C)O)C(C)C)C(C)C` [Melittin, reference compound] here?
Answer: The value was “total disruption of the cellular membrane”.

Question: For RRQRSICKQLLKKLRQQLSDALQNNDD-NH2 [cNK-2], which tachyzoites killed (N. caninum tachyzoites; 5 uM) is on record?
Answer: The tachyzoites killed was “about 46%”.

Question: What about the tachyzoites killing (N. caninum tachyzoites; 5 uM) of the same molecule?
Answer: Its tachyzoites killing is 71%.

Question: And the tachyzoites killed (N. caninum tachyzoites; 10 uM)?
Answer: Its tachyzoites killed is about 60%.

Question: And the tachyzoites killing (N. caninum tachyzoites; 10 uM)?
Answer: Its tachyzoites killing is 86%.

Question: And the “viability of C. parvum sporozoites” value (C. parvum sporozoites)?
Answer: Its value is “significant decreases in the viability”.

Question: And the “killing of E. acervulina sporozoites (viability, trypan blue)” value ([1]; 50 μg/ml or 100 μg/ml peptide, 3 h at 41° C., HBSS control, P<0.01)?
Answer: Its value is “significantly killed”.

Question: And the “effect on E. acervulina sporozoites viability” value [1]?
Answer: The value was “time- and dose-dependent effect”.

Question: And the membrane permeabilization (E. maxima)?
Answer: The membrane permeabilization was “caused membrane permeabilization”.

Question: And the “body weights of infected birds compared with HBSS control birds” value (E. acervulina oocysts; 1 μg and 5 μg in ovo then intraperitoneal, 5 and 10 days post-infection, 500 oocysts, P<0.05)?
Answer: The value was “significantly higher body weights”.

Question: What about the fecal oocyst shedding (E. acervulina oocysts; dose of at least 5 μg, oocysts collected 5 to 10 days post infection, P<0.05) of the same molecule?
Answer: Its fecal oocyst shedding is “significant reduction of fecal oocyst shedding”.

Question: What about the “protective effect against live oral challenge infection” value (E. acervulina oocysts; in ovo injections followed by intraperitoneal injections, 500 E. acervulina oocysts) of the same molecule?
Answer: Its value is “significant protective effect”.

Question: What about the membrane permeabilization (E. tenella) of the same molecule?
Answer: Its membrane permeabilization is “caused membrane permeabilization”.

Question: And the “antimicrobial activity against bacterial growth” value (E. coli strain BMH71-18)?
Answer: The value was “Neither chicken NK-lysin nor the NK-lysin peptides, cNK-2 and cNK-4, demonstrated antimicrobial activity”.

Question: For “cNK-4: synthetic chicken NK-lysin peptide (88-117), AINNALNKVCSTGRRQRSICKQLLKKLRQQ, SEQ ID NO. 4 (listed as Gallus gallus)”, which “effect on E. acervulina sporozoites viability” value [1] is on record?
Answer: The value was “no effect”.

Question: And the “antimicrobial activity against bacterial growth” value (E. coli strain BMH71-18)?
Answer: The value was “Neither chicken NK-lysin nor the NK-lysin peptides, cNK-2 and cNK-4, demonstrated antimicrobial activity”.
